Read-outs that look alike come from different tables or passages of the source.
Key:
[1] = tested on: differentiated human THP-1 cells; assay: stimulated release of TNF-α from differentiated human THP-1 cells (ELISA, dose-response); format: cell-based; settings: read-out: EC50 (nM) (THP-1)
Method in brief: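 Human THP-1 cells were PMA-differentiated toward macrophages, and stimulated TNF-α release was measured by ELISA. EC50 values were taken from dose-response curves.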

mouse macrophages = assay: stimulated release of TNF-α from mouse macrophages; format: cell-based; settings: read-out: EC50 (nM) (mouse)
Text: EC50 values are derived from dose-response curves for the stimulated release of TNF-α from differentiated THP-1 cells or mouse macrophages are shown beneath each appropriate structural formula of Compounds 8-12. Half maximal effective concentration (EC50) refers to the concentration of a drug, antibody or toxicant that induces a response halfway between the baseline and maximum after a specified exposure time. It is commonly used as a measure of a drug's potency.

[2] = Homo sapiens, THP-1, Table 3, TNF-α release from human THP-1 cells
[3] = Macrophage, Table 3, TNF-α release from mouse macrophages
[4] = Homo sapiens, THP-1, Table 7, TNF-α release from human THP-1 cells
[5] = Macrophage, Table 7, TNF-α release from mouse macrophages

Compound | EC50 [1, 2] [nM] | EC50 (mouse macrophages; [3]) [nM] | also measured
O=C(N[C@H]1C[C@@H]1c1ccccc1)[C@@H]1CN(C(=O)c2ccc(C(=O)N3C[C@@H](C(=O)N[C@H]4C[C@@H]4c4ccccc4)[C@H](C(=O)N[C@H]4C[C@@H]4c4ccccc4)C3)c(O)c2)C[C@H]1C(=O)N[C@H]1C[C@@H]1c1ccccc1 [Compound 53, (3S,3′S,4S,4′S)-1,1′-(2-Hydroxyterephthaloyl)-bis(N^3,N^4-bis((1S,2R)-2-phenylcyclopropyl)pyrrolidine-3,4-dicarboxamide)] | 0.2 | 130 | 
O=C(N[C@H]1C[C@@H]1c1ccccc1)[C@@H]1CN(C(=O)c2ccc(C(=O)N3C[C@@H](C(=O)N[C@H]4C[C@@H]4c4ccccc4)[C@H](C(=O)N[C@H]4C[C@@H]4c4ccccc4)C3)c([N+](=O)[O-])c2)C[C@H]1C(=O)N[C@H]1C[C@@H]1c1ccccc1 [Compound 54, (3S,3′S,4S,4′S)-1,1′-(2-Nitroterephthaloyl)-bis(N^3,N^4-bis((1S,2R)-2-phenylcyclopropyl)pyrrolidine-3,4-dicarboxamide)] | 20 | > 5000 | 
Nc1cc(C(=O)N2C[C@@H](C(=O)N[C@H]3C[C@@H]3c3ccccc3)[C@H](C(=O)N[C@H]3C[C@@H]3c3ccccc3)C2)ccc1C(=O)N1C[C@@H](C(=O)N[C@H]2C[C@@H]2c2ccccc2)[C@H](C(=O)N[C@H]2C[C@@H]2c2ccccc2)C1 [Compound 55, (3S,3′S,4S,4′S)-1,1′-(2-Amino-terephthaloyl)-bis(N^3,N^4-bis((1S,2R)-2-phenylcyclopropyl)-pyrrolidine-3,4-dicarboxamide)] | 1 | 140 | 
C#CCOc1cc(C(=O)N2C[C@@H](C(=O)N[C@H]3C[C@@H]3c3ccccc3)[C@H](C(=O)N[C@H]3C[C@@H]3c3ccccc3)C2)ccc1C(=O)N1C[C@@H](C(=O)N[C@H]2C[C@@H]2c2ccccc2)[C@H](C(=O)N[C@H]2C[C@@H]2c2ccccc2)C1 [Compound 56, (3S,3′S,4S,4′S)-1,1′-(2-(Prop-2-yn-1-yloxy)-terephthaloyl)bis(N^3,N^4-bis((1S,2R)-2-phenylcyclo-propyl)pyrrolidine-3,4-dicarboxamide)] | 15 | 750 | 
O=C(N[C@H]1C[C@@H]1c1ccccc1)[C@@H]1CN(C(=O)c2cc(O)c(C(=O)N3C[C@@H](C(=O)N[C@H]4C[C@@H]4c4ccccc4)[C@H](C(=O)N[C@H]4C[C@@H]4c4ccccc4)C3)cc2O)C[C@H]1C(=O)N[C@H]1C[C@@H]1c1ccccc1 [Compound 59, (3S,3′S,4S,4′S)-1,1′-(2,5-Dihydroxy-terephthaloyl)bis(N^3,N^4-bis((1S,2R)-2-phenylcyclo-propyl)-pyrrolidine-3,4-dicarboxamide)] | 20 | > 5000 | 
O=C(N[C@H]1C[C@@H]1c1ccccc1)[C@@H]1CN(C(=O)c2cc(Cl)c(C(=O)N3C[C@@H](C(=O)N[C@H]4C[C@@H]4c4ccccc4)[C@H](C(=O)N[C@H]4C[C@@H]4c4ccccc4)C3)cc2Cl)C[C@H]1C(=O)N[C@H]1C[C@@H]1c1ccccc1 [Compound 61, (3S,3′S,4S,4′S)-1,1′-(2,5-Dichloroterephthaloyl)-bis(N^3,N^4-bis((1S,2R)-2-phenylcyclopropyl)pyrrolidine-3,4-dicarboxamide)] | 360 | > 5000 | 
O=C(NCCc1ccc(F)cc1)[C@@H]1CN(C(=O)C#CC(=O)N2C[C@@H](C(=O)NCCc3ccc(F)cc3)[C@H](C(=O)NCCc3ccc(F)cc3)C2)C[C@H]1C(=O)NCCc1ccc(F)cc1 [Compound 100, (3S,3′S,4S,4′S)-1,1′-(But-2-ynedi-oyl)bis(N^3,N^4-bis(4-fluorophenethyl)pyrrolidine-3,4-dicarboxamide)] |  |  | EC50 [1, 4]: > 5000 nM; EC50 (mouse macrophages; [5]): > 5000 nM
O=C(NCCc1ccc(F)cc1)[C@@H]1CN(C(=O)/C=C/C(=O)N2C[C@@H](C(=O)NCCc3ccc(F)cc3)[C@H](C(=O)NCCc3ccc(F)cc3)C2)C[C@H]1C(=O)NCCc1ccc(F)cc1 [Compound 101, (3S,3′S,4S,4′S)-1,1′-Fumaroylbis-(N^3,N^4-bis(4-fluorophnethyl)pyrrolidine-3,4-dicarboxamide)] |  |  | EC50 [1, 4]: > 5000 nM; EC50 (mouse macrophages; [5]): > 5000 nM
O=C(NCCc1ccc(F)cc1)[C@@H]1CN(C(=O)C/C=C/CC(=O)N2C[C@@H](C(=O)NCCc3ccc(F)cc3)[C@H](C(=O)NCCc3ccc(F)cc3)C2)C[C@H]1C(=O)NCCc1ccc(F)cc1 [Compound 102, (3S,3′S,4S,4′S)-1,1′-((E)-Hex-3-enedioyl)bis-(N^3,N^4-bis(4-fluorophenethyl)pyrrolidine-3,4-dicarboxamide)] |  |  | EC50 [1, 4]: > 5000 nM; EC50 (mouse macrophages; [5]): > 5000 nM
O=C(NCCc1ccc(F)cc1)[C@@H]1CN(C(=O)c2cccc(C(=O)N3C[C@@H](C(=O)NCCc4ccc(F)cc4)[C@H](C(=O)NCCc4ccc(F)cc4)C3)c2)C[C@H]1C(=O)NCCc1ccc(F)cc1 [Compound 103, (3S,3′S,4S,4′S)-1,1′-Isophthaloyl-bis-(N^3,N^4-bis(4-fluorophenethyl)pyrrolidine-3,4-dicarboxamide)] |  |  | EC50 [1, 4]: > 5000 nM; EC50 (mouse macrophages; [5]): > 5000 nM
O=C(NCCc1ccc(F)cc1)[C@@H]1CN(C(=O)c2ccc(-c3ccc(C(=O)N4C[C@@H](C(=O)NCCc5ccc(F)cc5)[C@H](C(=O)NCCc5ccc(F)cc5)C4)cc3)cc2)C[C@H]1C(=O)NCCc1ccc(F)cc1 [Compound 104, (3S,3′S,4S,4′S)-1,1′-([1,1′-Biphenyl]-4,4′-dicarbonyl)bis(N^3,N^4-bis(4-fluoro-phenethyl)-pyrrolidine-3,4-dicarboxamide)] |  |  | EC50 [1, 4]: > 5000 nM; EC50 (mouse macrophages; [5]): > 5000 nM
O=C(NCCc1ccc(F)cc1)C1CN(C(=O)COCC(=O)N2CC(C(=O)NCCc3ccc(F)cc3)C(C(=O)NCCc3ccc(F)cc3)C2)CC1C(=O)NCCc1ccc(F)cc1 [Compound 105, (3S,3′S,4S,4′S)-1,1′-(2,2′-Oxybis(acetyl))bis-(N^3,N^4-bis(4-fluorophenethyl)pyrrolidine-3,4-dicarboxamide)] |  |  | EC50 ([1]; Table 7, TNF-α release from human THP-1 cells): > 5000 nM; EC50 (mouse macrophages; Table 7, TNF-α release from mouse macrophages): > 5000 nM

More lines, main results first:

EC50 [1, 2] [nM] | EC50 (mouse macrophages; [3]) [nM] | Compound | also measured
4 | 270 | O=C(N[C@H]1C[C@@H]1c1ccccc1)[C@@H]1CN(C(=O)c2ccc(C(=O)N3C[C@@H](C(=O)N[C@H]4C[C@@H]4c4ccccc4)[C@H](C(=O)N[C@H]4C[C@@H]4c4ccccc4)C3)nc2)C[C@H]1C(=O)N[C@H]1C[C@@H]1c1ccccc1 [Compound 51, (3S,3′S,4S,4′S)-1,1′-(Pyridine-2,5-dicarbonyl)-bis(N^3,N^4-bis((1S,2R)-2-phenylcyclopropyl)-pyrrolidine-3,4-dicarboxamide)] | 
> 5000 | > 5000 | O=C(N[C@H]1C[C@@H]1c1ccccc1)[C@@H]1CN(C(=O)/C=C/C=C/C(=O)N2C[C@@H](C(=O)N[C@H]3C[C@@H]3c3ccccc3)[C@H](C(=O)N[C@H]3C[C@@H]3c3ccccc3)C2)C[C@H]1C(=O)N[C@H]1C[C@@H]1c1ccccc1 [Compound 52, (3S,3′S,4S,4′S)-1,1′-((2E,4E)-Hexa-2,4-dienedioyl)-bis(N^3,N^4-bis((1S,2R)-2-phenylcyclopropyl)-pyrrolidine-3,4-dicarboxamide)] | 
30 | 250 | COc1cc(C(=O)N2C[C@@H](C(=O)N[C@H]3C[C@@H]3c3ccccc3)[C@H](C(=O)N[C@H]3C[C@@H]3c3ccccc3)C2)ccc1C(=O)N1C[C@@H](C(=O)N[C@H]2C[C@@H]2c2ccccc2)[C@H](C(=O)N[C@H]2C[C@@H]2c2ccccc2)C1 [Compound 57, (3S,3′S,4S,4′S)-1,1′-(2-Methoxy-terephthaloyl)-bis(N^3,N^4-bis((1S,2R)-2-phenylcyclopropyl)-pyrrolidine-3,4-dicarboxamide)] | 
5 | 10 | O=C(N[C@H]1C[C@@H]1c1ccccc1)[C@@H]1CN(C(=O)c2ccc(C(=O)N3C[C@@H](C(=O)N[C@H]4C[C@@H]4c4ccccc4)[C@H](C(=O)N[C@H]4C[C@@H]4c4ccccc4)C3)c(Br)c2)C[C@H]1C(=O)N[C@H]1C[C@@H]1c1ccccc1 [Compound 58, (3S,3′S,4S,4′S)-1,1′-(2-Bromoterephthaloyl)-bis(N^3,N^4-bis((1S,2R)-2-phenylcyclopropyl)pyrrolidine-3,4-dicarboxamide)] | 
110 | > 5000 | O=C(N[C@H]1C[C@@H]1c1ccccc1)[C@@H]1CN(C(=O)c2c(F)c(F)c(C(=O)N3C[C@@H](C(=O)N[C@H]4C[C@@H]4c4ccccc4)[C@H](C(=O)N[C@H]4C[C@@H]4c4ccccc4)C3)c(F)c2F)C[C@H]1C(=O)N[C@H]1C[C@@H]1c1ccccc1 [Compound 60, (3S,3′S,4S,4′S)-1,1′-(Perfluoroterephthaloyl)-bis(N^3,N^4-bis((1S,2R)-2-phenylcyclopropyl)pyrrolidine-3,4-dicarboxamide)] | 
860 | > 5000 | O=C(N[C@H]1C[C@@H]1c1ccccc1)[C@@H]1CN(C(=O)c2cc(Br)c(C(=O)N3C[C@@H](C(=O)N[C@H]4C[C@@H]4c4ccccc4)[C@H](C(=O)N[C@H]4C[C@@H]4c4ccccc4)C3)cc2Br)C[C@H]1C(=O)N[C@H]1C[C@@H]1c1ccccc1 [Compound 62, (3S,3′S,4S,4′S)-1,1′-(2,5-Dibromoterephthaloyl)-bis(N^3,N^4-bis((1S,2R)-2-phenylcyclopropyl)pyrrolidine-3,4-dicarboxamide)] | 
> 5000 | > 5000 | Cc1cc(C(=O)N2C[C@@H](C(=O)N[C@H]3C[C@@H]3c3ccccc3)[C@H](C(=O)N[C@H]3C[C@@H]3c3ccccc3)C2)c(C)cc1C(=O)N1C[C@@H](C(=O)N[C@H]2C[C@@H]2c2ccccc2)[C@H](C(=O)N[C@H]2C[C@@H]2c2ccccc2)C1 [Compound 63, (3S,3′S,4S,4′S)-1,1′-(2,5-Dimethylterephthaloyl)-bis(N^3,N^4-bis((1S,2R)-2-phenylcyclopropyl)pyrrolidine-3,4-dicarboxamide)] | 
